According to US9107415B2, “2-(substituted-phenyl)-cyclopentane-1,3-dione compounds, and derivatives thereof” (Syngenta Limited, priority 2011, dated 2015):

Tests used:
Format in all cases: in vivo
[1] = test system: Alopecurus myosuroides (ALOMY); assay: Biological Example 1 glasshouse screen, post-emergence herbicidal activity; details: 312 h, application rate 250 g/ha, evaluated after 13 days, read-out: ALOMY percentage phytotoxicity
Method in brief: (§1)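 Phytotoxicity was scored visually as % damage (100 = total, 0 = none) 13 days after spraying. Spray was acetone/water (50:50) with 0.5% Tween 20, applied to soil-sown pots 1 day (pre-emergence) or 8 days (post-emergence) after sowing. Glasshouse at 24/16°C, 14 h light, 65% humidity.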

[2] = test system: Echinochloa crus-galli (ECHCG); assay: as above; details: 312 h, application rate 250 g/ha, evaluated after 13 days, read-out: ECHCG percentage phytotoxicity
Method in brief: as §1

[3] = test system: Avena fatua (AVEFA); assay: Biological Example 1 glasshouse screen, pre-emergence herbicidal activity; details: 312 h, application rate 250 g/ha, evaluated after 13 days, read-out: AVEFA percentage phytotoxicity
Method in brief: (§2)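 Pots in a glasshouse (24/16°C day/night, 14 h light, 65% humidity) were sprayed one day after sowing (pre-emergence) or after 8 days (post-emergence), using acetone/water (50:50) with 0.5% Tween 20. Phytotoxicity was scored visually as % damage (0-100) 13 days after application.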

[4] = test system: Lolium perenne (LOLPE); assay: as above; details: 312 h, application rate 250 g/ha, evaluated after 13 days, read-out: LOLPE percentage phytotoxicity
Method in brief: as §2

[5] = test system: Echinochloa crus galli, barnyardgrass (ECHCG); assay: Biological Example 3 glasshouse screen, post-emergence herbicidal activity; details: 360 h, 15 DAA, no safener, read-out: ECHCG percentage phytotoxicity; for pest or weed control at 30 g/ha: application rate 30 g/ha; for pest or weed control at 60 g/ha: application rate 60 g/ha
Method in brief: (§3)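 Seeds were sown in standard soil and cultivated for 12 days under controlled glasshouse conditions. Plants were then sprayed with the unformulated compound in acetone/IF50 plus 0.2% v/v X-77 in aqueous solution, without safener, and percentage damage was assessed visually 15 days later.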

[6] = test system: Lolium perenne, perennial ryegrass (LOLPE); assay: as above; details: 360 h, 15 DAA, no safener, read-out: LOLPE percentage phytotoxicity; for pest or weed control at 30 g/ha: application rate 30 g/ha; for pest or weed control at 60 g/ha: application rate 60 g/ha
Method in brief: as §3

[7] = test system: Alopecurus myosuroides, blackgrass (ALOMY); assay: as above; details: 360 h, 15 DAA, no safener, read-out: ALOMY percentage phytotoxicity; for pest or weed control at 30 g/ha: application rate 30 g/ha; for pest or weed control at 60 g/ha: application rate 60 g/ha
Method in brief: as §3

[8] = test system: Avena fatua, wild oats (AVEFA); assay: as above; details: 360 h, 15 DAA, no safener, read-out: AVEFA percentage phytotoxicity; for pest or weed control at 30 g/ha: application rate 30 g/ha; for pest or weed control at 60 g/ha: application rate 60 g/ha
Method in brief: as §3

[9] = test system: Triticum aestivum, wheat (TRZAW); assay: Biological Example 3 glasshouse screen, post-emergence, phytotoxicity on wheat; details: 360 h, 15 DAA, no safener, read-out: TRZAW percentage phytotoxicity; for pest or weed control at 30 g/ha: application rate 30 g/ha; for pest or weed control at 60 g/ha: application rate 60 g/ha
Method in brief: as §3

SMILES | pest or weed control at 250 g/ha [1] [%] | pest or weed control at 250 g/ha [2] [%] | pest or weed control at 250 g/ha [3] [%] | pest or weed control at 250 g/ha [4] [%] | pest or weed control at 15 g/ha ([5]; application rate 15 g/ha) [%] | pest or weed control at 30 g/ha [5] [%] | pest or weed control at 15 g/ha ([6]; application rate 15 g/ha) [%] | pest or weed control at 30 g/ha [6] [%] | pest or weed control at 15 g/ha ([7]; application rate 15 g/ha) [%] | pest or weed control at 30 g/ha [7] [%] | pest or weed control at 15 g/ha ([8]; application rate 15 g/ha) [%] | pest or weed control at 30 g/ha [8] [%] | pest or weed control at 15 g/ha ([9]; application rate 15 g/ha) [%] | pest or weed control at 30 g/ha [9] [%] | pest or weed control at 60 g/ha [5] [%] | pest or weed control at 60 g/ha [6] [%] | pest or weed control at 60 g/ha [7] [%] | pest or weed control at 60 g/ha [8] [%] | pest or weed control at 60 g/ha [9] [%]
CC#Cc1cc(C)c(C2C(=O)CC(Cc3ccn(C)n3)C2=O)c(C)c1 (stereo not drawn) [Compound A-19] | 100 | 100 | 100 | 100 | 70 | 100 | 30 | 80 | 80 | 100 | 40 | 90 | 20 | 70 | – | – | – | – | –
CC#Cc1cc(C)c(C2=C(O)CC(Cc3ccc(F)cn3)C2=O)c(C)c1 (stereo not drawn) [Compound A-11] | 100 | 100 | 70 | 100 | – | 100 | – | 80 | – | 90 | – | 70 | – | 40 | 100 | 100 | 100 | 100 | 50
CC#Cc1cc(C)c(C2=C(O)CC(Cc3ccc(C)cn3)C2=O)c(C)c1 (stereo not drawn) [Compound A-8] | 100 | 100 | 100 | 100 | – | 70 | – | 90 | – | 80 | – | 70 | – | 40 | – | – | – | – | –
CC#Cc1cc(C)c(C2=C(O)CC(Cc3ccc(C#N)cn3)C2=O)c(C)c1 (stereo not drawn) [Compound A-14] | 100 | 100 | 50 | 90 | – | 90 | – | 70 | – | 70 | – | 0 | – | 20 | 90 | 80 | 90 | 60 | 40
